Results as given in patent US7671042B2, “Pharmaceutical compositions containing cyclodextrins and taxoids” (priority 1997, dated 2010).
Like-named read-outs stand apart in the source and are kept apart here.

What was measured:
[1] = aqueous
[2] = cited from earlier work
beagle dogs = assay: Cardiovascular and respiratory effects following intravenous administration in anaesthetised beagle dogs; type: in vivo, beagle dog
Description: The following parameters were recorded or derived and served as indicators of the functional status of the various elements within the cardiovascular and respiratory systems. The units of measurement are stated in parenthesis.
Anaesthesia was induced by i.v. injection of sodium thiopentone and maintained i.v. by a mixture of α-chloralose and pentobarbitone sodium given as required. Body temperature was maintained.
The trachea was cannulated and the canule connected to a pneumotach screen to allow measurement of tidal volume (ml) and the derived parameters of respiration rate (br/min) and minute volume (ml). Catheters were introduced into the right femoral artery and a cephalic vein to facilitate measurements of blood pressure and the administration of vehicle, test substances and anaesthetic respectively. The femoral artery was connected to a heparin/saline filled pressure transducer, coupled to a Grass 7E polygraph. […]
Following a 30 minute stabilization period, the vehicle was administered i.v. at a dose volume of 7.0 ml/kG over a period of 15 minutes. […] The parameters were monitored for a least 45 minutes from the start of infusion. […]
All parameters including high resolution (50 mm/sec) recordings of the ECG were measured at 5 minute intervals during the stabilization period and at 0.5, 1, 2 and 5 minutes intervals post-dose following vehicle and drug administration. […]

SMILES: CC(=O)O[C@H]1C(=O)[C@@]2(C)[C@H]([C@H](OC(=O)c3ccccc3)[C@]3(O)C[C@H](OC(=O)[C@H](O)[C@@H](NC(=O)c4ccccc4)c4ccccc4)C(C)=C1C3(C)C)[C@]1(OC(C)=O)CO[C@@H]1C[C@@H]2O [paclitaxel]
- Dissolved Paclitaxel ([1]; 2% w/v acetyl-γ-cyclodextrin): 4.0 µg/mL
- Dissolved Paclitaxel ([1]; 5% w/v acetyl-γ-cyclodextrin): 8.8 µg/mL
- Dissolved Paclitaxel ([1]; 10% w/v acetyl-γ-cyclodextrin): 25.0 µg/mL
- Dissolved Paclitaxel ([1]; 20% w/v acetyl-γ-cyclodextrin): 48.0 µg/mL
- Dissolved Paclitaxel ([1]; 40% w/v acetyl-γ-cyclodextrin): 170 µg/mL
- Dissolved Paclitaxel ([1]; 40% w/v acetyl-γ-cyclodextrin, listed as Paclitaxel): 170.0 µg/mL
- aqueous solubility ([2]; ambient temperature): about 0.0005 mg/ml
- aqueous solubility ([2]; room temperature): about 0.5 μg/ml
- outcome of i.v. administration (beagle dogs; 6 and 60 mg/m^2 in Cremophor ELP:ethanol 1:1, i.v., animals 1 and 2, administration discontinued): death of the animals
- reaction to intravenous administration (beagle dogs; dog, in vivo, iv): anaphylactic type reaction
